Series [1] deals with Anas platyrhynchos. To be noted: oral, mortality.
The subject of series [2] is Apis mellifera. As to conditions: acute, duration: 48 hours, mortality.
The subject of series [3] is Colinus virginianus. To be noted: acute; oral; diet; mortality.
Series [4] deals with Oncorhynchus mykiss. As to conditions: acute; duration: 96 hours; mortality.
For series [5], the system named is Oryctolagus sp. As to conditions: developmental; development.
In series [6] the test system is Rattus norvegicus.
The subject of series [7] is Tagia sp. As to conditions: acute; duration: 14 days; mortality.
Series [8] deals with Aphidius rhopalosiphi. Put plainly: LR50; higher = less toxic. As to conditions: acute; duration: 48 hours; mortality.
In series [9] the test system is Typhlodromus pyri. Put plainly: LR50; higher = less toxic. To be noted: acute; duration: 7 days; mortality.

Values after ≈ are worked out from the molar mass of the structure shown. Values joined by “and” are separate entries in the source; they are usually repeats but may differ in a detail not shown here. Identical values can stand only once. Where only a bound is given, the exact number is not on record here.

As usually defined, the NOAEL is the highest dose or exposure tested at which no adverse effect was seen. With `CCc1cc(C)cc(CC)c1-c1c(OC(=O)C(C)(C)C)n2n(c1=O)CCOCC2` [Pinoxaden], the LD50 in series [1] (acute, unspecified) is more than 2250 mg/kg-day; in [2] (dermal), more than 100 µg/piece; in [2] (oral, unspecified), more than 200 µg/piece; in series [6] (acute, oral, mortality), more than 5000 mg/kg-day. For the same molecule, the LC50 in series [1] (short-term, feed) is more than 1800 mg/kg-day; in series [3], more than 1570 mg/kg-day; in series [4], 10.3 mg/L (≈ 25.7 µM); in series [7] it was more than 1000 mg/kg. Further, the NOAEL was 30 mg/kg-day and 10 mg/kg-day in series [5]; 10 mg/kg-day in [6] (chronic, duration: 2 years, histopathology: nonneoplastic); 250 mg/kg-day in [6] (reproduction developmental, body weight); 500 mg/kg-day in series [6] (reproduction developmental, oral, gavage, no effects). The LR50 in [8] was 6.22 g/ha; in [9], 1.81 g/ha.

The values are drawn from EPA's ToxValDB 9.5 (doi:10.2903/j.efsa.2013.3269).
